In paper PMC3886921, “Cofactor-Independent Phosphoglycerate Mutase from Nematodes Has Limited Druggability, as Revealed by Two High-Throughput Screens” (PLoS Neglected Tropical Diseases, 2014):

Columns and labels:
[1] = target: T1, cofactor-independent phosphoglycerate mutase (iPGAM) (Caenorhabditis elegans, UniProt G5EFZ1); assay: HTS coupled enzyme assay at […] ([…] inhibition), re-tested and reconfirmed; format: biochemical
T1 construct: gene ipgm-1; Full-length, histidine-tagged
T1 sequence (G5EFZ1 1-539): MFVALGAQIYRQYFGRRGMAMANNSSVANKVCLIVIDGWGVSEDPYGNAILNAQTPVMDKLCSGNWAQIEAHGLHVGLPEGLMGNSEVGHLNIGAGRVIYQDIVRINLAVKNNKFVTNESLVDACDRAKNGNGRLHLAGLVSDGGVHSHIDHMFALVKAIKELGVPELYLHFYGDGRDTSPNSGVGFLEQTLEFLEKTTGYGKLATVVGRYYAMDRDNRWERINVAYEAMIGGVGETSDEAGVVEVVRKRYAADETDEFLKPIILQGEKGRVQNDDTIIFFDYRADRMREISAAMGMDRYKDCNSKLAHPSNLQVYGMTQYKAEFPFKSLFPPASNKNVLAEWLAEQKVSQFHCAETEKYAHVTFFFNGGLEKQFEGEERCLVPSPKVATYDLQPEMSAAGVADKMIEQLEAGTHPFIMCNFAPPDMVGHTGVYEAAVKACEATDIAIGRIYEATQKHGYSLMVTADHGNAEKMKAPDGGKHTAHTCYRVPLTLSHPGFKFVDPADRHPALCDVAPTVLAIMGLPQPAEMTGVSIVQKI

[2] = target: T2, cofactor-independent phosphoglycerate mutase (iPGAM) (Brugia malayi, UniProt Q4VWF8); assay: coupled enzyme assay (NADH absorbance at […] nm), luminescence (Kinase-Glo) confirmation; format: biochemical
T2 construct: gene ipgm-1; Full-length, histidine-tagged
T2 sequence (Q4VWF8 1-515): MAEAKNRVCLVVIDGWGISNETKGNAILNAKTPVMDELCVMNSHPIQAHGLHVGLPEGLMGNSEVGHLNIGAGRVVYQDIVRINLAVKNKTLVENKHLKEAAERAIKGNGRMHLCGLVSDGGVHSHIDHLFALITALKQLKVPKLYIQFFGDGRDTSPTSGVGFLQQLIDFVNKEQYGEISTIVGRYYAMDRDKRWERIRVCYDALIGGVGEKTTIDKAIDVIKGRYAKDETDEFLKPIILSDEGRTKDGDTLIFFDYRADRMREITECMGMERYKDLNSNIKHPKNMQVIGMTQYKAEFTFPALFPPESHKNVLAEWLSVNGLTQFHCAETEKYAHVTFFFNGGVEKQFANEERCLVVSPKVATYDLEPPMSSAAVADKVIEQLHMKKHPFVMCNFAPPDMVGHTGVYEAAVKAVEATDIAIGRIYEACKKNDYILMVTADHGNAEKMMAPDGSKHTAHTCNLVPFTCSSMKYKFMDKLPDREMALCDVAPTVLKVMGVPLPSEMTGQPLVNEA

[3] = target: T2, cofactor-independent phosphoglycerate mutase (iPGAM); assay: coupled enzyme assay (NADH absorbance at […] nm), dose-response; luminescence (Kinase-Glo) confirmation; format: biochemical
[4] = substrate: O=C(O)[C@H](O)COP(=O)(O)O; assay: enzyme kinetics (Km), coupled assay; format: biochemical, Caenorhabditis elegans; settings: Mg2+
[5] = substrate: O=C(O)[C@H](O)COP(=O)(O)O; assay: enzyme kinetics (Km), coupled assay; format: biochemical, Brugia malayi; settings: Mg2+

Molecule: CCc1cc2c[n+](C3CCCCC3)sc2s1 [Genz-2]
- inhibition at 10 µM [1]: > 40%
- IC50 [2]: > 10 µM

Molecule: Nc1cc2cccnc2c2ncccc12 [NCDS-1, 5-amino-1,10-phenanthroline]
- IC50 [3]: > 10 µM

B1: cofactor-independent phosphoglycerate mutase (iPGAM) (Caenorhabditis elegans) (protein)
chain: T1 sequence (G5EFZ1 1-539)
notes: Full-length, histidine-tagged
- Km [4]: 0.38 mM

B2: cofactor-independent phosphoglycerate mutase (iPGAM) (Brugia malayi) (protein)
chain: T2 sequence (Q4VWF8 1-515)
notes: Full-length, histidine-tagged
- Km [5]: 0.37 mM
